# Patent US9023865B2, “Compounds that are ERK inhibitors” (Merck Sharp & Dohme Corp., priority 2011, dated 2015)
# Target: Active Human ERK2 (hERK2) (Homo sapiens (Human), UniProt P28482)
# Experiment: Active Human ERK2 (hERK2) Activity Assay (IMAP-FP)
# Format: biochemical
# Conditions: phosphorylated active hERK2, 30 μM ATP; average; read-out: ERK 2 Human average IC50
# Procedure, shortened: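 Phosphorylation by activated human ERK2 (0.5 nM) at 30 μM ATP, peptide substrate 900 nM unlabeled with 80 nM labeled, proceeds 60 min. IMAP beads stop the reaction; after 60 min equilibration, product is measured by fluorescence polarization.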
# Sequence of Active Human ERK2 (hERK2) (P28482 whole entry): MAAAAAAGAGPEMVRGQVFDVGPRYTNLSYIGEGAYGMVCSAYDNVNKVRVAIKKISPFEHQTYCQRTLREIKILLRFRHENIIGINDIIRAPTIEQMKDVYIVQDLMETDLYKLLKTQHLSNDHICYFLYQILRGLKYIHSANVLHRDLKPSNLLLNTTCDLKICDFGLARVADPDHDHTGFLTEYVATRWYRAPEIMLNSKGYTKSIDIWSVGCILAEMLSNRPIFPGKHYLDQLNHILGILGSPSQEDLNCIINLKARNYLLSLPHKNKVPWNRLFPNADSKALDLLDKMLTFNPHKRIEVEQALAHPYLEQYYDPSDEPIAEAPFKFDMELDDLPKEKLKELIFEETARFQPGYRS
row,Compound,IC50 [nM]
1,Cc1cc(-c2n[nH]c3cc(NC(=O)NC4CCCC(O)C4)ncc23)ccn1 (centres unmarked) [Example 380],6.18
2,CC(=O)OC1CCCC(NC(=O)Nc2cc3[nH]nc(-c4ccnc(C)c4)c3cn2)C1 (centres unmarked) [Example 381],6.71
3,Cc1cc(-c2n[nH]c3cc(NC(=O)NCCc4nc5ccccc5n4C)ncc23)ccn1 [Example 382],6.26
4,Cc1cc(-c2n[nH]c3cc(NC(=O)N[C@H]4CCCC(F)(F)[C@@H]4O)ncc23)ccn1 [Example 383],13.3
5,Cc1cc(-c2n[nH]c3cc(NC(=O)NCC(c4ccccn4)N4CCOCC4)ncc23)ccn1 (centres unmarked) [Example 384],24.7
6,Cc1cc(-c2n[nH]c3cc(NC(=O)NCC(c4ccccc4)C4(O)CCOCC4)ncc23)ccn1 (centres unmarked) [Example 385],0.939
7,Cc1cc(-c2n[nH]c3cc(NC(=O)NCC(c4ccccc4)N4CCCCC4)ncc23)ccn1 (centres unmarked) [Example 386],4.94
8,Cc1cc(-c2n[nH]c3cc(NC(=O)NCCC4CCOC4)ncc23)ccn1 (centres unmarked) [Example 387],4.42
9,Cc1cc(-c2n[nH]c3cc(NC(=O)NCC4(O)CCN(C)CC4)ncc23)ccn1 [Example 388],6.66
10,Cc1cc(-c2n[nH]c3cc(NC(=O)NCC(O)C4CCCCC4)ncc23)ccn1 (centres unmarked) [Example 389],4.11
11,Cc1cc(-c2n[nH]c3cc(NC(=O)NCc4nccc5ccccc45)ncc23)ccn1 [Example 390],2.76
12,Cc1ccc2nc(CNC(=O)Nc3cc4[nH]nc(-c5ccnc(C)c5)c4cn3)cn2c1 [Example 391],22.2
13,Cc1cc(-c2n[nH]c3cc(NC(=O)NCc4cn5c(C)cccc5n4)ncc23)ccn1 [Example 392],22.6
14,Cc1cc(-c2n[nH]c3cc(NC(=O)NCc4cn5cccc(C)c5n4)ncc23)ccn1 [Example 393],13.8
15,Cc1cc(-c2n[nH]c3cc(NC(=O)NCCc4cn[nH]c4)ncc23)ccn1 [Example 394],0.85
16,Cc1cc(-c2n[nH]c3cc(NC(=O)NCc4cc5ccccc5cn4)ncc23)ccn1 [Example 395],7.66

row,Compound,IC50 [nM]
1,Cc1cc(-c2n[nH]c3cc(NC(=O)NC4CC(=O)Nc5ccc(F)cc54)ncc23)ccn1 (centres unmarked) [Example 396],8.46
2,Cc1cc(-c2n[nH]c3cc(NC(=O)NCc4nnc(-c5ccccc5)[nH]4)ncc23)ccn1 [Example 397],48.1
3,Cc1cc(-c2n[nH]c3cc(NC(=O)NCC4(Nc5ccccc5)CCOCC4)ncc23)ccn1 [Example 398],1.13
4,Cc1cc(-c2n[nH]c3cc(NC(=O)NCCC(=O)Nc4ccccc4Br)ncc23)ccn1 [Example 399],2.06
5,Cc1cc(-c2n[nH]c3cc(NC(=O)NC4CCc5ccncc5C4)ncc23)ccn1 (centres unmarked) [Example 400],5.42
6,Cc1cc(-c2n[nH]c3cc(NC(=O)NCCN4CCC(c5ccccc5)C4)ncc23)ccn1 (centres unmarked) [Example 401],20
7,CCC(C)C(NC(=O)Nc1cc2[nH]nc(-c3ccnc(C)c3)c2cn1)c1ccc(Cl)cc1 (centres unmarked) [Example 404],11.1
8,Cc1cc(-c2n[nH]c3cc(NC(=O)N[C@@H]4CN[C@H](c5ccccc5)C4)ncc23)ccn1 [Example 405],14.2
9,CCN(CC)CCC(NC(=O)Nc1cc2[nH]nc(-c3ccnc(C)c3)c2cn1)c1ccccc1 (centres unmarked) [Example 406],1.06
10,Cc1cc(-c2n[nH]c3cc(NC(=O)NC4CC(=O)Nc5ccccc54)ncc23)ccn1 (centres unmarked) [Example 407],5.72
11,Cc1cc(-c2n[nH]c3cc(NC(=O)NCc4nc5ccccc5[nH]4)ncc23)ccn1 [Example 408],2
12,Cc1cc(-c2n[nH]c3cc(NC(=O)NCC4CNC(c5ccccc5)C4)ncc23)ccn1 (centres unmarked) [Example 409],5.69
13,Cc1cc(-c2n[nH]c3cc(NC(=O)NCC4CCN(Cc5ccccc5)C4)ncc23)ccn1 (centres unmarked) [Example 410],2.65
14,Cc1cc(-c2n[nH]c3cc(NC(=O)N[C@@H](C)c4ccc(F)c(F)c4)ncc23)ccn1 [Example 411],34.1
15,Cc1cc(-c2n[nH]c3cc(NC(=O)N[C@H](C)c4ccc(F)c(F)c4)ncc23)ccn1 [Example 412],0.303
16,CC[C@H](NC(=O)Nc1cc2[nH]nc(-c3ccnc(C)c3)c2cn1)c1ccc(Cl)cc1 [Example 413],39.2
